# In patent publication US10941157B2, “Pesticidal compositions and uses thereof” (Gilead Apollo, LLC, priority 2015, dated 2021):
# Like-named read-outs stand apart in the source and are kept apart here.
# Key:
# Phakopsora pachyrhizi = assay: Foliar protection test for Asian soybean rust control; assay type: in vivo; conditions: foliar application to soybean (Glycine max AG4832), percent disease area evaluated 14 days later
# [1] = system: Collectotrichum graminicola (Cg); assay: In vitro pathogen growth inhibition assay, Cg; assay type: cell-based; conditions: 48 h
# Method in brief: (§1)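 Value reported is the compound concentration reaching ≥90% growth inhibition, from OD readings at 24 and 48 h after blank subtraction, confirmed visually. Inoculum was spores diluted in 17% V8 medium, except Rs, using 1.5 mm mycelial plugs in ¼ PDB; actual compound concentration corrected via OD600.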
# Diplodia maydis (Dm) = assay: In vitro pathogen growth inhibition assay, Dm; assay type: cell-based; conditions: Stenocarpella maydis, 48 h
# Method in brief: (§2)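 Spores of Dm, Fv and Pc were diluted in 17% V8 liquid medium; Rs used 1.5 mm mycelial plugs in ¼ PDB. Compounds from 2.5 mg/ml DMSO stocks were combined with inoculum, growth was read by OD600 at 24 and 48 h with blank subtraction, and the reported value is the concentration giving ≥90% inhibition.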
# [2] = system: Blumeria graminis f. sp. hordei; assay: Foliar protection test for barley powdery mildew control; assay type: in vivo; conditions: foliar spray on Hordeum vulgare cv. Perry, inoculated 24 hours after treatment, evaluated 7 days later
# Method in brief: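 Protective foliar test: compound atomized onto both leaf surfaces of 6-day-old Hordeum vulgare cv. Perry, followed after 24 h by spore-cloud inoculation from colonized untreated plants. Disease rated on leaves 7 days on, plants held at 20 to 22° C and 70% RH.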
# Fusarium graminearum = assay type: in vivo; conditions: spray on flowering Triticum aestivum cv. Samson, inoculated 24 hours after treatment, evaluated 14 days later
# [3] = system: Fusarium moniliforme (Fm); assay: In vitro pathogen growth inhibition assay, Fm; assay type: cell-based; conditions: Fusarium verticillioides
# Method in brief: as §1
# [4] = system: Fusarium virguliforme (Fv); assay: In vitro pathogen growth inhibition assay, Fv; assay type: cell-based
# Method in brief: as §2
# Rhizoctonia solani (Rs) = assay: In vitro pathogen growth inhibition assay, Rs (mycelial plugs); assay type: cell-based; conditions: Rhizoctonia solani, 48 h, mycelial plugs
# Method in brief: as §2
# Sphaerotheca fuliginea = assay: Foliar protection for cucumber powdery mildew control; assay type: in vivo; conditions: foliar spray on Cucumis sativus cv. Straight Eight, inoculated 24 hours after treatment, evaluated 7 days later
# Method in brief: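 Protective foliar spray on 10-day-old Straight Eight cucumbers, with S. fuliginea spores dusted from infected stock plants 24 h after treatment. Disease developed at 23–27 °C, 60% RH and a 16 h photoperiod. Leaves were rated for mildew growth after 7 days; test rates 10 ppm or below.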
# [5] = system: Phytophthora capsici (Pc); assay: In vitro pathogen growth inhibition assay, Pc; assay type: cell-based; conditions: 48 h
# Method in brief: as §2
# Botrtyis cinerea (Bc) = assay: In vitro pathogen growth inhibition assay, Bc; assay type: cell-based; conditions: 48 h
# Method in brief: as §1
# Puccinia triticina = assay: Foliar protection test for wheat leaf rust control; assay type: in vivo; conditions: foliar application to wheat (Triticum aestivum cv. Winterhawk), evaluated 10 days later
# Septoria tritici (St) = assay: In vitro pathogen growth inhibition assay, St; assay type: cell-based; conditions: Zymoseptoria tritici, 48 h
# Method in brief: as §1
# [6] = system: Mycosphaerella graminicola (synthetic Septoria tritici); assay: Foliar protection test for wheat septoria leaf blotch control; assay type: in vivo; conditions: foliar spray on Triticum aestivum cv. WinterHawk, inoculated 1 hour after treatment, evaluated 16 days later
# [7] = ≥90% growth inhibition, 48 hours, vs 2% DMSO control, read-out: Compound Concentration (ppm) sufficient for ≥90% inhibition of Cg
# [8] = ≥90% growth inhibition, 48 hours, vs 2% DMSO control, read-out: Compound Concentration (ppm) sufficient for ≥90% inhibition of Dm
# [9] = ≥90% growth inhibition, 48 hours, vs 2% DMSO control, read-out: Compound Concentration (ppm) sufficient for ≥90% inhibition of Fm
# [10] = ≥90% growth inhibition, 48 hours, vs 2% DMSO control, read-out: Compound Concentration (ppm) sufficient for ≥90% inhibition of Fv
# [11] = ≥90% growth inhibition, 48 hours, vs 2% DMSO control, read-out: Compound Concentration (ppm) sufficient for ≥90% inhibition of Rs
# [12] = ≥90% growth inhibition, 48 hours, vs 2% DMSO control, read-out: Compound Concentration (ppm) sufficient for ≥90% inhibition of Pc
# [13] = ≥90% growth inhibition, 48 hours, vs 2% DMSO control, read-out: Compound Concentration (ppm) sufficient for ≥90% inhibition of Bc
# [14] = ≥90% growth inhibition, 48 hours, vs 2% DMSO control, read-out: Compound Concentration (ppm) sufficient for ≥90% inhibition of St
SMILES,Asian Soybean Rust Control at a compound concentration of 25 ppm or lower (Phakopsora pachyrhizi),"IC90 [1, 7] [µg/mL]",IC90 (Diplodia maydis (Dm); [8]) [µg/mL],Barley Powdery Mildew Control at a compound concentration of 10 ppm or lower [2],Wheat Fusarium Head Blight Control at a compound concentration of 25 ppm or lower (Fusarium graminearum),"IC90 [3, 9] [µg/mL]","IC90 [4, 10] [µg/mL]",IC90 (Rhizoctonia solani (Rs); [11]) [µg/mL],Cucumber Powdery Mildew Control at a compound concentration of 10 ppm or lower (Sphaerotheca fuliginea),"IC90 [5, 12] [µg/mL]",IC90 (Botrtyis cinerea (Bc); [13]) [µg/mL],Wheat Leaf Rust Control at a compound concentration of 10 ppm or lower (Puccinia triticina),IC90 (Septoria tritici (St); [14]) [µg/mL],Septoria Leaf Blotch Control at a compound concentration of 25 ppm or lower [6],also measured
"CCNC(=O)C(C)(C)n1c(=O)c2c(C)c(-n3nccn3)sc2n(C[C@H](O)c2cc(F)ccc2OC)c1=O [Compound I-292, (R)—N-ethyl-2-(1-(2-(5-fluoro-2-methoxyphenyl)-2-hydroxyethyl)-5-methyl-2,4-dioxo-6-(2H-1,2,3-triazol-2-yl)-1,4-dihydrothieno[2,3-d]pyrimidin-3 (2H)-yl)-2-methylpropanamide]",B (from 50 to 69% control of Asian soybean rust),2,2,AA (≥85% control of barley powdery mildew),C (from 25 to 49% control of wheat fusarium head blight),0.08,0.4,0.4,AA (≥85% control of cucumber powdery mildew),> 50,2,AA (≥85% control of wheat leaf rust),> 50,B (from 50 to 69% control of wheat septoria leaf blotch),–
"COc1ccc(F)cc1[C@H](Cn1c(=O)n([C@H](C)C(=O)NC2CCC2)c(=O)c2c(C)c(-n3nccn3)sc21)OCCO [Compound I-092, (R)—N-cyclobutyl-2-(1-((R)-2-(5-fluoro-2-methoxyphenyl)-2-(2-hydroxyethoxy)ethyl)-5-methyl-2,4-dioxo-6-(2H-1,2,3-triazol-2-yl)-1,4-dihydrothieno[2,3-d]pyrimidin-3(2H)-yl)propanamide]",B (from 50 to 69% control of Asian soybean rust),–,–,C (from 25 to 49% control of barley powdery mildew),C (from 25 to 49% control of wheat fusarium head blight),–,–,–,AA (≥85% control of cucumber powdery mildew),–,–,AA (≥85% control of wheat leaf rust),–,B (from 50 to 69% control of wheat septoria leaf blotch),"IC90 ([1]; ≥90% inhibition, 48 hours vs 2% DMSO control, read-out: Compound Concentration (ppm) sufficient for ≥90% inhibition of growth, Cg): 0.08 µg/mL; IC90 (Diplodia maydis (Dm); ≥90% inhibition, 48 hours vs 2% DMSO control, read-out: Compound Concentration (ppm) sufficient for ≥90% inhibition of growth, Dm): 0.4 µg/mL; IC90 ([3]; ≥90% inhibition, 48 hours vs 2% DMSO control, read-out: Compound Concentration (ppm) sufficient for ≥90% inhibition of growth, Fm): 0.08 µg/mL; IC90 ([4]; ≥90% inhibition, 48 hours vs 2% DMSO control, read-out: Compound Concentration (ppm) sufficient for ≥90% inhibition of growth, Fv): > 0.4 µg/mL; IC90 (Rhizoctonia solani (Rs); ≥90% inhibition, 48 hours vs 2% DMSO control, read-out: Compound Concentration (ppm) sufficient for ≥90% inhibition of growth, Rs): 0.08 µg/mL; IC90 ([5]; ≥90% inhibition, 48 hours vs 2% DMSO control, read-out: Compound Concentration (ppm) sufficient for ≥90% inhibition of growth, Pc): 2 µg/mL; IC90 (Botrtyis cinerea (Bc); ≥90% inhibition, 48 hours vs 2% DMSO control, read-out: Compound Concentration (ppm) sufficient for ≥90% inhibition of growth, Bc): 0.4 µg/mL; IC90 (Septoria tritici (St); ≥90% inhibition, 48 hours vs 2% DMSO control, read-out: Compound Concentration (ppm) sufficient for ≥90% inhibition of growth, St): ≥ 2 µg/mL"
"CCc1ccc(F)cc1[C@H](Cn1c(=O)n(C(C)(C)C(=O)NC(C)C)c(=O)c2c(C)c(-n3nccn3)sc21)OC[C@@H](C)C#N [Compound I-281, 2-(1-((R)-2-((S)-2-cyanopropoxy)-2-(2-ethyl-5-fluorophenyl)ethyl)-5-methyl-2,4-dioxo-6-(2H-1,2,3-triazol-2-yl)-1,4-dihydrothieno[2,3-d]pyrimidin-3 (2H)-yl)-N-isopropyl-2-methylpropanamide]",D (<25% control of Asian soybean rust),0.08,2,AA (≥85% control of barley powdery mildew),C (from 25 to 49% control of wheat fusarium head blight),0.08,0.08,0.08,AA (≥85% control of cucumber powdery mildew),> 50,0.08,AA (≥85% control of wheat leaf rust),> 50,AA (≥85% control of wheat septoria leaf blotch),–
"COc1ccc(F)cc1[C@H](Cn1c(=O)n(C(C)(C)C(=O)NC(C)C)c(=O)c2c(C)c(-n3nccn3)sc21)OC[C@H](C)C#N [Compound I-212, 2-(1-((R)-2-((R)-2-cyanopropoxy)-2-(5-fluoro-2-methoxyphenyl)ethyl)-5-methyl-2,4-dioxo-6-(2H-1,2,3-triazol-2-yl)-1,4-dihydrothieno[2,3-d]pyrimidin-3 (2H)-yl)-N-isopropyl-2-methylpropanamide]",AA (≥85% control of Asian soybean rust),0.08,≥ 0.08,AA (≥85% control of barley powdery mildew),B (from 50 to 69% control of wheat fusarium head blight),0.08,0.4,0.08,AA (≥85% control of cucumber powdery mildew),> 50,0.4,AA (≥85% control of wheat leaf rust),> 50,AA (≥85% control of wheat septoria leaf blotch),–
"CCOC(=O)c1sc2c(c1C)c(=O)n(C(C)(C)C(=O)NC(C)C)c(=O)n2C[C@H](OC[C@@H](C)C#N)c1cc(F)ccc1OC [Compound I-258, (R)-ethyl-1-(2-((S)-2-cyanopropoxy)-2-(5-fluoro-2-methoxyphenyl)ethyl)-3-(1-(isopropylamino)-2-methyl-1-oxopropan-2-yl)-5-methyl-2,4-dioxo-1,2,3,4-tetrahydrothieno[2,3-d]pyrimidine-6-carboxylate]",C (from 25 to 49% control of Asian soybean rust),0.08,0.4,A (from 70% to 84% control of barley powdery mildew),C (from 25 to 49% control of wheat fusarium head blight),0.08,0.4,0.08,AA (≥85% control of cucumber powdery mildew),≥ 10,0.4,A (from 70% to 84% control of wheat leaf rust),≥ 2,B (from 50 to 69% control of wheat septoria leaf blotch),–
